Measurements taken from patent publication US9145372B2, “Pyridazine derivatives, compositions and methods for treating cognitive impairment” (AGENEBIO, INC., priority 2010, dated 2015).
Entries after “also recorded” stand apart in the source; their conditions may differ.

Experiments:
[1] = biological target: T1, GABAA α5β3γ2 subtype receptor (Homo sapiens, UniProt P18507+P31644); assay: GABA-gated Cl- current potentiation in Xenopus oocytes expressing GABAA α5β3γ2 (TEVC); format: cell-based; settings: for positive allosteric modulation of GABA at GABAA α5 receptors: concentration response 0.01-100 μM, FIGS. 1(A)-(D); for activation at 1 µM: read-out: GABA α5 EC50 % potentiation
T1 construct: myc-His (vector-encoded); expressed in transfected cells; host or cells: Xenopus laevis oocytes injected with cDNAs
T1 sequence (P31644 32-462): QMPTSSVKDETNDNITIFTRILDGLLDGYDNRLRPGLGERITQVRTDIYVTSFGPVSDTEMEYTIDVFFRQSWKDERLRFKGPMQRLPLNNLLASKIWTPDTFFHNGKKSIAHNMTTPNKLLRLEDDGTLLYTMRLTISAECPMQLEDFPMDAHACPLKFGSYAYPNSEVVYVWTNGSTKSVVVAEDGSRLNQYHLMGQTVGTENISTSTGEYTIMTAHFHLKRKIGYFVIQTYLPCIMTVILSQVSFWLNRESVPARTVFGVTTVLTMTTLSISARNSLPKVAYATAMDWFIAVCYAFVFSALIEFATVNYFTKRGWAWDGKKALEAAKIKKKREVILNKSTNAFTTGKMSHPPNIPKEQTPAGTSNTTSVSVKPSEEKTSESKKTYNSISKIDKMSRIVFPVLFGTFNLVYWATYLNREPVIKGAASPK
T1 sequence (P28472 26-473 partner): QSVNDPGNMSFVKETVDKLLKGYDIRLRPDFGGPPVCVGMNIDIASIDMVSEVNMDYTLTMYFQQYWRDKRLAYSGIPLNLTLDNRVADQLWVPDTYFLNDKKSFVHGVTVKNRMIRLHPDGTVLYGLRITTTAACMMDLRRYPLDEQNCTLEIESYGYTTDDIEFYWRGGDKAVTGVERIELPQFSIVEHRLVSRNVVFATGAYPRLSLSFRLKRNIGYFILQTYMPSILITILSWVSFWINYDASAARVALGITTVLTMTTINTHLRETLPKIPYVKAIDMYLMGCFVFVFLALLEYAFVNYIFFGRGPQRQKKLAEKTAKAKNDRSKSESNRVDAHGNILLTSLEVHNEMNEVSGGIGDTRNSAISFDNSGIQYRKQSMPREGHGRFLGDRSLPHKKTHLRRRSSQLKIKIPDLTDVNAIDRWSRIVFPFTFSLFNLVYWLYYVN
T1 sequence (P18507 40-467 limits assumed): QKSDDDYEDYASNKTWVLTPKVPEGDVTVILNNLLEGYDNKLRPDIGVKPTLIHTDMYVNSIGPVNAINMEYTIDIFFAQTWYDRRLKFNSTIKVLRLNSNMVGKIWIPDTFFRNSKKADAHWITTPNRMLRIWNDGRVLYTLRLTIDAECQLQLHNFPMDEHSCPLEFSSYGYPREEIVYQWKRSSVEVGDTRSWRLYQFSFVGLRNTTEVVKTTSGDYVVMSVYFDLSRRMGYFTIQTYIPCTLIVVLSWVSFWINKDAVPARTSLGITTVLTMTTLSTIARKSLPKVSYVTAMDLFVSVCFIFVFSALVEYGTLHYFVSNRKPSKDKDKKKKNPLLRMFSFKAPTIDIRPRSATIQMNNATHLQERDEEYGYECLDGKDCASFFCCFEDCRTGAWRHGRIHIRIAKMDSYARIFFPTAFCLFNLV
Source text: (§1) Step 1: Establish Clones of GABAAR Subunits (α5, β3, γ2, α1, α2 and α3) and Prepare the Corresponding cRNAs: Human clones of GABAA-R α5, β3, γ2, α1, α2 and α3 subunits are obtained from commercial resources (e.g., OriGene, http://www.origene.com and Genescript, http://www.genescript.com). These clones are engineered into pRC, pCDM, pcDNA, and pBluescript KSM vector (for oocyte expression) or other equivalent expression vectors. Conventional transfection agents (e.g., FuGene, Lipofectamine 2000, or others) are used to transiently transfect host cells.
Adult female Xenopus laevis frogs were purchased from Nasco (Fort Atkinson, Wis.). […] All chemicals used were of reagent grade. […] Stock solutions of Diazepam, Flumazenil and compounds of the present invention were prepared in dimethyl sulfoxide (DMSO) and then diluted to an appropriate concentration with the extracellular solution just before use. To avoid adverse effects from DMSO exposure, the final concentration of DMSO was not higher than 0.3% (v/v).
Upon conclusion of compound testing and successful washout, a 1.0 μM Diazepam was tested and used for comparative activity on the two GABAAR subtypes.
Other concentrations of the test compound may also be tested following the same protocol.
Results are expressed as mean±SEM.

[2] = biological target: T2, GABAA α1 receptors (α1β2γ2) (Homo sapiens, UniProt P14867+P18507); assay: GABA-gated Cl- current in Xenopus oocytes expressing GABAA α1β2γ2 (TEVC), off-target activity; format: cell-based; settings: concentration response 0.01-100 μM; FIGS. 1(A)-(D)
T2 construct: expressed in transfected cells; host or cells: Xenopus laevis oocytes injected with cDNAs
T2 sequence (P14867 28-456): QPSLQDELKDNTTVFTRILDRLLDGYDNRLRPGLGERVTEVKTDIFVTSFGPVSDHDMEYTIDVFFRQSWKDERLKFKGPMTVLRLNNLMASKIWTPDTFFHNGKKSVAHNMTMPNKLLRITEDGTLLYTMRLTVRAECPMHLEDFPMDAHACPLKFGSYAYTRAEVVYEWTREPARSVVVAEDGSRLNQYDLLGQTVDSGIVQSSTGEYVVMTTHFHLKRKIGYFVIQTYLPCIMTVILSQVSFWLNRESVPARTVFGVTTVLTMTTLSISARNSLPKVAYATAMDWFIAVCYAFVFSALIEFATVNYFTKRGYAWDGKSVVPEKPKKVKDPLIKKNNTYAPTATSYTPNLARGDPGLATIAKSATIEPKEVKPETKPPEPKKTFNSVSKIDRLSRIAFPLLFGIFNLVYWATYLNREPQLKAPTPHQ
T2 sequence (P47870 25-512 partner limits assumed): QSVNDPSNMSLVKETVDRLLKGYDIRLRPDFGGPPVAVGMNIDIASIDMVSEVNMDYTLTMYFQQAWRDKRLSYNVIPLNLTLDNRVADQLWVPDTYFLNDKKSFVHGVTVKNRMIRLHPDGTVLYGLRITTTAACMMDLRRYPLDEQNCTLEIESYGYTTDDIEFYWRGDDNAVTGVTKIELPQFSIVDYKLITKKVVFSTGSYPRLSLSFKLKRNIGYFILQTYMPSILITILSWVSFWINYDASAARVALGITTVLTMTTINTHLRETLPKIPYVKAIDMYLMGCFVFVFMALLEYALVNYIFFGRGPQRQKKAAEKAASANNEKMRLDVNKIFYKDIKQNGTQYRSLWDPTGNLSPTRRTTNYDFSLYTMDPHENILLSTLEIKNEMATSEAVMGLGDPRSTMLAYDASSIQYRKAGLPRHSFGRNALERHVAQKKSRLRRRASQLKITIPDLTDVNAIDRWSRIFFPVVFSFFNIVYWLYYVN
T2 sequence (P18507 40-467 limits assumed): T1 sequence (P18507 40-467 limits assumed)
Source text: as §1
Xenopus oocytes were isolated according to previously published procedures (see, e.g., Goldin et al. Methods Enzymol. 207:266-279 (1992)). The isolated Xenopus oocytes were injected with GABAAR cDNAs (1:1:1 ratio for a total volume of 1 ng of α1βγ2 or α5β3γ2) cloned into mammalian expression vectors. In particular, α1, β2, γ2 were cloned into pcDNA3.1. and α5 and β3 were cloned into pcDNA3.1 myc-His. Vectors were verified by partial sequencing (DNA Core Facility, University of Southern California, USA). After injection, oocytes were stored in incubation medium (Modified Barth's Saline (MBS) supplemented with 2 mM sodium pyruvate, 0.5 mM theophylline and 50 mg/L gentamycin), in petri dishes (VWR, San Dimas, Calif.). All solutions were sterilized by passage through 0.22 μM filters. […] Oocytes were used in experiments for up to 5 days after injection.
A high-throughput two-electrode voltage clamp (TEVC) system (OpusXpress A6000; Molecular Devices, Union City, Calif.), which automates the impalement of oocytes, fluid delivery and current recording from 8 oocytes in parallel, was used to carry out all electrophysiological recordings.
Xenopus Oocytes expressing GABAA-R α5β3γ2 or α1β2γ2 subtype, as prepared in section (A) above, were placed in 8 chambers of OpusXpress and perfused by MBS at 3 mL/min. Glass electrodes back-filled with 3 M KCl (0.5-3 megaohms) were used. Membrane potential of oocytes was voltage-clamped at −60 mV. Oocytes with holding current larger than 0.5 μA were discarded.
Data for each experimental point were obtained from 4 or more Xenopus oocytes and from at least two different frogs. The n refers to the number of Xenopus oocytes tested. Results are expressed as mean±SEM. […] Prism (GraphPAD Software, San Diego, Calif.) and Excel were used to perform curve fitting and statistical analyses.

## CN(C)C(=O)c1c(-c2ccccc2)cnnc1-c1ccccc1 [Compound 4]
[1]
  positive allosteric modulation of GABA at GABAA α5 receptors: strong positive allosteric modulation
  activation at 1 µM: 42%
[2]
  positive allosteric modulation at GABAA α1 receptors: markedly reduced positive allosteric modulation

## COC(=O)c1coc(-c2c(-c3ccccc3)cnnc2-c2ccccc2)n1 [Compound 26, Methyl 2-(3,5-diphenylpyridazin-4-yl)oxazole-4-carboxylate]
[1]
  positive allosteric modulation of GABA at GABAA α5 receptors: strong positive allosteric modulation
  activation at 1 µM: 15.8%
[2]
  positive allosteric modulation at GABAA α1 receptors: markedly reduced positive allosteric modulation; also recorded: no evidence of activity

## COC(=O)c1coc(-c2c(-c3ccccc3)cnnc2-c2cccc(Cl)c2)n1 [Compound 27]
[1]
  positive allosteric modulation of GABA at GABAA α5 receptors: strong positive allosteric modulation
  activation at 1 µM: 30.5%
[2]
  positive allosteric modulation at GABAA α1 receptors: markedly reduced positive allosteric modulation

## COC(=O)c1coc(-c2c(-c3ccccc3)cnnc2-c2cccc(OC)c2)n1 [Compound 29]
[1]
  positive allosteric modulation of GABA at GABAA α5 receptors: strong positive allosteric modulation
  activation at 1 µM: 12.3%
[2]
  positive allosteric modulation at GABAA α1 receptors: markedly reduced positive allosteric modulation
